Earlier results in article PMC9729070 (Bioorganic & medicinal chemistry letters, 2022).

Key:
[1] = Phase I clinical trials
[2] = CRPC patients

bioavailability [1]	Compound	survival time prolongation [2]
unacceptable bioavailability	O=C(Nc1ccc([N+](=O)[O-])cc1Cl)c1cc(Cl)ccc1O [Niclosamide (1), Niclosamide]	
	CNC(=O)c1ccc(N2C(=S)N(c3ccc(C#N)c(C(F)(F)F)c3)C(=O)C2(C)C)cc1F [enzalutamide (Xtandi), enzalutamide]	five
